According to US10597388B2, “Pyridazinone herbicides” (FMC CORPORATION, priority 2014, dated 2020):

How the values were obtained:
Format in all cases: in vivo
[1] = system: blackgrass (Alopecurus myosuroides); experiment: Test A greenhouse herbicide test, postemergence; details: for Blackgrass plant response rating: 0 to 100 scale, 0 is no effect, 100 is complete control
Excerpt: (§1) At the same time, plants selected from these crop and weed species and also blackgrass (Alopecurus myosuroides), and galium (catchweed bedstraw, Galium aparine) were planted in pots containing the same blend of loam soil and sand and treated with postemergence applications of test chemicals formulated in the same manner. Plants ranged in height from 2 to 10 cm and were in the one- to two-leaf stage for the postemergence treatment. Treated plants and untreated controls were maintained in a greenhouse for approximately 10 d, after which time all treated plants were compared to untreated controls and visually evaluated for injury. Plant response ratings, summarized in Table A, are based on a 0 to 100 scale where 0 is no effect and 100 is complete control. A dash (-) response means no test result.

[2] = system: galium (catchweed bedstraw, Galium aparine); experiment: Test A greenhouse herbicide test, postemergence; details: for Galium plant response rating: 0 to 100 scale, 0 is no effect, 100 is complete control
Excerpt: as §1

[3] = system: ryegrass, Italian (Italian ryegrass, Lolium multiflorum); experiment: Test A greenhouse herbicide test, pre- and postemergence
Excerpt: (§2) Seeds of plant species selected from barnyardgrass (Echinochloa crus-galli), kochia (Kochia scoparia), ragweed (common ragweed, Ambrosia elatior), ryegrass, Italian (Italian ryegrass, Lolium multiflorum), crabgrass, large (large crabgrass, Digitaria sanguinalis), foxtail, giant (giant foxtail, Setaria faberii), momingglory (Ipomoea spp.), pigweed (Amaranthus retroflexus), velvetleaf (Abutilon theophrasti), wheat (Triticum aestivum), and corn (Zea mays) were planted into a blend of loam soil and sand and treated preemergence with a directed soil spray using test chemicals formulated in a non-phytotoxic solvent mixture which included a surfactant.
as §1

[4] = system: barnyardgrass (Echinochloa crus-galli); experiment: as above
Excerpt: as §2, §1

[5] = system: foxtail, giant (giant foxtail, Setaria faberii); experiment: as above
Excerpt: as §2, §1

corn (Zea mays) = experiment: as above; details: Postemergence; for Corn plant response rating: 0 to 100 scale, 0 is no effect, 100 is complete control
Excerpt: as §2, §1

[6] = system: pigweed (Amaranthus retroflexus); experiment: as above
Excerpt: as §2, §1

[7] = system: ragweed (common ragweed, Ambrosia elatior); experiment: as above
Excerpt: as §2, §1

kochia (Kochia scoparia) = experiment: as above
Excerpt: as §2, §1

[8] = system: wheat (Triticum aestivum); experiment: as above; details: Postemergence; for Wheat plant response rating: 0 to 100 scale, 0 is no effect, 100 is complete control
Excerpt: as §2, §1

[9] = Postemergence, 1000 g ai/ha, 0 to 100 scale, 0 is no effect, 100 is complete control
[10] = Preemergence, 1000 g ai/ha, 0 to 100 scale, 0 no effect, 100 complete control
[11] = 125 g ai/ha, 0 to 100 scale where 0 is no effect and 100 is complete control
[12] = 500 g ai/ha, visual rating after approx. 10 d, 0 to 100 scale (0 no effect, 100 complete control)
[13] = Postemergence, 125 g ai/ha, 0 to 100 scale where 0 is no effect and 100 is complete control
[14] = Postemergence, 500 g ai/ha, visual rating after approx. 10 d, 0 to 100 scale (0 no effect, 100 complete control)
[15] = Preemergence, 500 g ai/ha, 0 to 100 scale where 0 is no effect and 100 is complete control
[16] = Preemergence, 125 g ai/ha, 0 to 100 scale where 0 is no effect and 100 is complete control
[17] = Postemergence, 500 g ai/ha, 0 to 100 scale, 0 is no effect, 100 is complete control
[18] = Preemergence, 500 g ai/ha, 0 to 100 scale, 0 no effect, 100 complete control

SMILES: CC(=O)COc1c(C)nn(C)c(=O)c1-c1cccc2ccccc12 [Compound 178]
- Blackgrass plant response rating ([1]; 1000 g ai/ha): 30
- Galium plant response rating ([2]; 1000 g ai/ha): 70
- Ryegrass, Italian plant response rating [3, 9]: 70
- Plant response rating, Ryegrass, Italian [3, 10]: 60
- Barnyardgrass plant response rating [4, 9]: 0
- Plant response rating, Barnyardgrass [4, 10]: 0
- Foxtail, Giant plant response rating [5, 9]: 0
- Plant response rating, Foxtail, Giant [5, 10]: 0
- Corn plant response rating (corn (Zea mays); 1000 g ai/ha): 0
- Pigweed plant response rating [6, 9]: 70
- Plant response rating, Pigweed [6, 10]: 0
- Ragweed plant response rating [7, 9]: 60
- Plant response rating, Ragweed [7, 10]: 0
- Kochia plant response rating (kochia (Kochia scoparia); [9]): 10
- Plant response rating, Kochia (kochia (Kochia scoparia); [10]): 0
- Wheat plant response rating ([8]; 1000 g ai/ha): 0

SMILES: COC(=O)COc1c(C)nn(C)c(=O)c1-c1cccc2ccccc12 [Compound 182]
- Blackgrass plant response rating ([1]; 1000 g ai/ha): 10
- Galium plant response rating ([2]; 1000 g ai/ha): 50
- Ryegrass, Italian plant response rating [3, 9]: 0
- Plant response rating, Ryegrass, Italian [3, 10]: 0
- Barnyardgrass plant response rating [4, 9]: 0
- Plant response rating, Barnyardgrass [4, 10]: 0
- Foxtail, Giant plant response rating [5, 9]: 0
- Plant response rating, Foxtail, Giant [5, 10]: 0
- Corn plant response rating (corn (Zea mays); 1000 g ai/ha): 0
- Pigweed plant response rating [6, 9]: 0
- Plant response rating, Pigweed [6, 10]: 0
- Ragweed plant response rating [7, 9]: 30
- Plant response rating, Ragweed [7, 10]: 0
- Kochia plant response rating (kochia (Kochia scoparia); [9]): 0
- Plant response rating, Kochia (kochia (Kochia scoparia); [10]): 0
- Wheat plant response rating ([8]; 1000 g ai/ha): 0

SMILES: COc1nn(C)c(=O)c(-c2c(C)sc3ccccc23)c1OC(C)=O [Compound 141]
- Plant response rating, Blackgrass [1, 11]: 0
- Plant response rating, Blackgrass [1, 12]: 50
- Plant response rating, Galium [2, 11]: 70
- Plant response rating, Galium [2, 12]: 90
- Plant response rating, Ryegrass, Italian [3, 13]: 70
- Plant response rating, Ryegrass, Italian [3, 14]: 90
- Plant response rating, Ryegrass, Italian [3, 15]: 80
- Plant response rating, Barnyardgrass [4, 13]: 20
- Plant response rating, Barnyardgrass [4, 14]: 50
- Barnyardgrass plant response rating [4, 16]: 50
- Plant response rating, Barnyardgrass [4, 15]: 90
- Plant response rating, Foxtail, Giant [5, 13]: 20
- Plant response rating, Foxtail, Giant [5, 14]: 70
- Foxtail, Giant plant response rating [5, 16]: 30
- Plant response rating, Foxtail, Giant [5, 15]: 70
- Plant response rating, Corn (corn (Zea mays); [11]): 0
- Plant response rating, Corn (corn (Zea mays); [12]): 0
- Plant response rating, Pigweed [6, 13]: 0
- Plant response rating, Pigweed [6, 14]: 30
- Pigweed plant response rating [6, 16]: 40
- Plant response rating, Pigweed [6, 15]: 60
- Plant response rating, Ragweed [7, 13]: 60
- Plant response rating, Ragweed [7, 14]: 40
- Plant response rating, Ragweed [7, 15]: 60
- Plant response rating, Kochia (kochia (Kochia scoparia); [13]): 10
- Plant response rating, Kochia (kochia (Kochia scoparia); [14]): 30
- Kochia plant response rating (kochia (Kochia scoparia); [16]): 0
- Plant response rating, Kochia (kochia (Kochia scoparia); [15]): 60
- Plant response rating, Wheat [8, 11]: 0
- Plant response rating, Wheat [8, 12]: 0

SMILES: CCc1ccc2ccccc2c1-c1c(OC(=O)OC(C)C)c(C)nn(C)c1=O [Compound 39]
- Plant response rating, Blackgrass [1, 11]: 30
- Blackgrass plant response rating ([1]; 500 g ai/ha): 70
- Plant response rating, Galium [2, 11]: 90
- Galium plant response rating ([2]; 500 g ai/ha): 100
- Plant response rating, Ryegrass, Italian [3, 13]: 90
- Ryegrass, Italian plant response rating [3, 17]: 60
- Ryegrass, Italian plant response rating [3, 16]: 40
- Plant response rating, Ryegrass, Italian [3, 18]: 50
- Plant response rating, Barnyardgrass [4, 13]: 0
- Barnyardgrass plant response rating [4, 17]: 10
- Barnyardgrass plant response rating [4, 16]: 0
- Plant response rating, Barnyardgrass [4, 18]: 10
- Plant response rating, Foxtail, Giant [5, 13]: 0
- Foxtail, Giant plant response rating [5, 17]: 60
- Foxtail, Giant plant response rating [5, 16]: 0
- Plant response rating, Foxtail, Giant [5, 18]: 60
- Plant response rating, Corn (corn (Zea mays); [11]): 0
- Corn plant response rating (corn (Zea mays); 500 g ai/ha): 0
- Plant response rating, Pigweed [6, 13]: 50
- Pigweed plant response rating [6, 17]: 80
- Pigweed plant response rating [6, 16]: 80
- Plant response rating, Pigweed [6, 18]: 80
- Plant response rating, Ragweed [7, 13]: 50
- Ragweed plant response rating [7, 17]: 90
- Ragweed plant response rating [7, 16]: 10
- Plant response rating, Ragweed [7, 18]: 70
- Plant response rating, Kochia (kochia (Kochia scoparia); [13]): 30
- Kochia plant response rating (kochia (Kochia scoparia); [17]): 30
- Kochia plant response rating (kochia (Kochia scoparia); [16]): 0
- Plant response rating, Kochia (kochia (Kochia scoparia); [18]): 0
- Plant response rating, Wheat [8, 11]: 0
- Wheat plant response rating ([8]; 500 g ai/ha): 10

SMILES: Cc1ccc2ccccc2c1-c1c(OC(=O)C2CC2)c(C)nn(C)c1=O [Compound 76]
- Plant response rating, Blackgrass [1, 11]: 0
- Blackgrass plant response rating ([1]; 500 g ai/ha): 10
- Plant response rating, Galium [2, 11]: 70
- Galium plant response rating ([2]; 500 g ai/ha): 80
- Plant response rating, Ryegrass, Italian [3, 13]: 40
- Ryegrass, Italian plant response rating [3, 17]: 80
- Ryegrass, Italian plant response rating [3, 16]: 50
- Plant response rating, Ryegrass, Italian [3, 15]: 70
- Plant response rating, Barnyardgrass [4, 13]: 0
- Barnyardgrass plant response rating [4, 17]: 30
- Barnyardgrass plant response rating [4, 16]: 0
- Plant response rating, Barnyardgrass [4, 18]: 30
- Plant response rating, Foxtail, Giant [5, 13]: 0
- Foxtail, Giant plant response rating [5, 17]: 20
- Foxtail, Giant plant response rating [5, 16]: 0
- Plant response rating, Foxtail, Giant [5, 15]: 20
- Plant response rating, Corn (corn (Zea mays); [11]): 0
- Corn plant response rating (corn (Zea mays); 500 g ai/ha): 0
- Plant response rating, Pigweed [6, 13]: 10
- Pigweed plant response rating [6, 17]: 20
- Pigweed plant response rating [6, 16]: 20
- Plant response rating, Pigweed [6, 15]: 50
- Plant response rating, Ragweed [7, 13]: 0
- Ragweed plant response rating [7, 17]: 20
- Ragweed plant response rating [7, 16]: 0
- Plant response rating, Ragweed [7, 15]: 50
- Plant response rating, Kochia (kochia (Kochia scoparia); [13]): 20
- Kochia plant response rating (kochia (Kochia scoparia); [17]): 40
- Kochia plant response rating (kochia (Kochia scoparia); [16]): 0
- Plant response rating, Kochia (kochia (Kochia scoparia); [15]): 0
- Plant response rating, Wheat [8, 11]: 0
- Wheat plant response rating ([8]; 500 g ai/ha): 0
